Data from patent US20250034182A1, “PHOSPHOLIPID COMPOUNDS AND METHODS OF MAKING AND USING THE SAME” (priority 2021, published 2025).

test system: Recombinant Respiratory Syncytial virus strain A2 containing the firefly luciferase reporter (RSV-Fluc) in NHBE cells; test: RSV NHBE FLuc EC50 (Example I); assay type: cell-based; conditions: human respiratory syncytial virus, 72 h, read-out: RSV NHBE FLuc EC50 (nM) (per Ex. I)
From the text: Normal human bronchial epithelial (NHBE) cells are purchased from Lonza (Walkersville, MD Cat #CC-2540) and maintained in Bronchial Epithelial Cell Growth Medium (BEGM) (Lonza, Walkersville, MD, Cat #CC-3170) with all provided supplements in the BulletKit. Cells are passaged 2-3 times per week to maintain sub-confluent densities and are used for experiments at passages 2-4.
Recombinant Respiratory Syncytial virus strain A2 containing the firefly luciferase reporter between the P and M genes (RSV-Fluc, 6.3×10^6 TCID50/mL) is purchased from Viratree (Durham, NC, Cat #R^145).
NHBE cells (5×10^3/well) are seeded in 100 μL white wall/clear bottom 96-well plates (Corning) with culture medium and are incubated for 24 hours at 37° C. with 5% CO2. On the following day, three-fold serial dilutions of compounds prepared in DMSO are added to the wells using the HP D300e digital dispenser with normalization to the highest concentration of DMSO in all wells. The cells are then infected with RSV-Fluc diluted with BEGM media at an MOI of 0.1 for a final volume of 200 μL media/well. Uninfected and untreated wells are included as controls to determine compound efficacy against RSV-Fluc. Following incubation with compound and virus for three days at 37° C. with 5% CO2, 100 μL of culture supernatant is removed from each well and replaced with 100 μL of ONE-Glo luciferase reagent (Promega, Madison, WI, Cat #E6110). The plates are gently mixed by rocking for 10 minutes at 21° C. and luminescence signal is measured using an Envision plate reader (PerkinElmer). Values are normalized to the uninfected and infected DMSO controls (0% and 100% infection, respectively). Non-linear regression analysis is applied to determine the compound concentration at which 50% luminescence signal is reduced (EC50) using the XLfit4 add-in for MICROSOFT®EXCEL®. All experiments are performed in duplicate with two technical repeats each.

`CCCCCCCCCCCCCCCCCCC[C@H](COP(=O)(O)OC[C@@]1(C#N)O[C@@H](c2ccc3c(N)ncnn23)[C@H](O)[C@@H]1O)Oc1ccc(C#N)c(OC(C)C)c1` [Compound 38, ((2R,3S,4R,5S)-5-(4-aminopyrrolo[2,1-f][1,2,4]triazin-7-yl)-2-cyano-3,4-dihydroxytetrahydrofuran-2-yl)methyl ((R)-2-(4-cyano-3-isopropoxyphenoxy)henicosyl) hydrogen phosphate] and `CCCCCCCCCCCCCCCCCCOC[C@H](COP(=O)(O)OC[C@@]1(C#N)O[C@@H](c2ccc3c(N)ncnn23)[C@H](O)[C@@H]1O)Oc1ccc(C#N)c(OC(C)C)c1` [Compound 23, ((2R,3S,4R,5S)-5-(4-aminopyrrolo[2,1-f][1,2,4]triazin-7-yl)-2-cyano-3,4-dihydroxytetrahydrofuran-2-yl)methyl ((R)-2-(4-cyano-3-isopropoxyphenoxy)-3-(octadecyloxy)propyl) hydrogen phosphate] are within 1.5-fold of each other in EC50: 23 nM for the first, 16 nM for the second.

First: CCCCCCCCCCCCCCOC[C@H](COP(=O)(O)OC[C@@]1(C#N)O[C@@H](c2ccc3c(N)ncnn23)[C@H](O)[C@@H]1O)OCc1ccc(C#N)cc1F [Compound 75, ((2R,3S,4R,5S)-5-(4-aminopyrrolo[2,1-f][1,2,4]triazin-7-yl)-2-cyano-3,4-dihydroxytetrahydrofuran-2-yl)methyl ((R)-2-((4-cyano-2-fluorobenzyl)oxy)-3-(tetradecyloxy)propyl) hydrogen phosphate]
Second: CCCCCCCCCCCCCCCCCCOC[C@H](COP(=O)(O)OC[C@@]1(C#N)O[C@@H](c2ccc3c(N)ncnn23)[C@H](O)[C@@H]1O)OCc1ccc(C#N)cc1OC [Compound 73, ((2R,3S,4R)-5-(4-aminopyrrolo[2,1-f][1,2,4]triazin-7-yl)-2-cyano-3,4-dihydroxytetrahydrofuran-2-yl)methyl ((R)-2-((4-cyano-2-methoxybenzyl)oxy)-3-(octadecyloxy)propyl) hydrogen phosphate]
The EC50 of the first is lower: < 10.9 nM for the first, 25 nM for the second. The first is the more potent here.

`CCCCCCCCCCCCCCCCCCCC[C@H](COP(=O)(O)OC[C@@]1(C#N)O[C@@H](c2ccc3c(N)ncnn23)[C@H](O)[C@@H]1O)Oc1cccc(C#N)c1` [Compound 51, ((2R,3S,4R,5S)-5-(4-aminopyrrolo[2,1-f][1,2,4]triazin-7-yl)-2-cyano-3,4-dihydroxytetrahydrofuran-2-yl)methyl ((R)-2-(3-cyanophenoxy)docosyl) hydrogen phosphate] and `CCCCCCCCCCCCCCCCCCC[C@H](COP(=O)(O)OC[C@@]1(C#N)O[C@@H](c2ccc3c(N)ncnn23)[C@H](O)[C@@H]1O)OCc1cc(F)cc(C#N)c1` [Compound 25, ((2R,3S,4R,5S)-5-(4-aminopyrrolo[2,1-f][1,2,4]triazin-7-yl)-2-cyano-3,4-dihydroxytetrahydrofuran-2-yl)methyl ((R)-2-((3-cyano-5-fluorobenzyl)oxy)henicosyl) hydrogen phosphate] are within 1.5-fold of each other in EC50: 66 nM for the first, 98 nM for the second.

`CCCCCCCCCCCCCCCCCCOC[C@H](COP(=O)(O)OC[C@@]1(C#N)O[C@@H](c2ccc3c(N)ncnn23)[C@H](O)[C@@H]1O)Oc1cccc(C#N)n1` [Compound 21, ((2R,3S,4R,5S)-5-(4-aminopyrrolo[2,1-f][1,2,4]triazin-7-yl)-2-cyano-3,4-dihydroxytetrahydrofuran-2-yl)methyl ((R)-2-((6-cyanopyridin-2-yl)oxy)-3-(octadecyloxy)propyl) hydrogen phosphate] and `CCCCCCCCCCCCCCCCCCOC[C@H](COP(=O)(O)OC[C@@]1(C#N)O[C@@H](c2ccc3c(N)ncnn23)[C@H](O)[C@@H]1O)OCc1cccc(C#N)n1` [Compound 68, ((2R,3S,4R)-5-(4-aminopyrrolo[2,1-f][1,2,4]triazin-7-yl)-2-cyano-3,4-dihydroxytetrahydrofuran-2-yl)methyl ((R)-2-((6-cyanopyridin-2-yl)methoxy)-3-(octadecyloxy)propyl) hydrogen phosphate] are within 1.5-fold of each other in EC50: 41 nM for the first, 36 nM for the second.

Compared with `CCCCCCCCCCCCCCCCC[C@H](COP(=O)(O)OC[C@@]1(C#N)O[C@@H](c2ccc3c(N)ncnn23)[C@H](O)[C@@H]1O)OCc1cc(F)cc(C#N)c1` [Compound 36, ((2R,3S,4R,5S)-5-(4-aminopyrrolo[2,1-f][1,2,4]triazin-7-yl)-2-cyano-3,4-dihydroxytetrahydrofuran-2-yl)methyl ((R)-2-((3-cyano-5-fluorobenzyl)oxy)nonadecyl) hydrogen phosphate], `CCCCCCCCCCCCCCCCCC[C@@H](COP(=O)(O)OC[C@@]1(C#N)O[C@@H](c2ccc3c(N)ncnn23)[C@H](O)[C@@H]1O)OCc1cc(F)cc(C#N)c1` [Compound 37, ((2R,3S,4R)-5-(4-aminopyrrolo[2,1-f][1,2,4]triazin-7-yl)-2-cyano-3,4-dihydroxytetrahydrofuran-2-yl)methyl ((S)-2-((3-cyano-5-fluorobenzyl)oxy)icosyl) hydrogen phosphate] is 2.3-fold higher in EC50: 121 nM for the first, 276 nM for the second. The first is the more potent here.

Going from `CCCCCCCCCCCCCCCCCCC[C@H](COP(=O)(O)OC[C@@]1(C#N)O[C@@H](c2ccc3c(N)ncnn23)[C@H](O)[C@@H]1O)OCc1ccc(C#N)c(OC(C)C)c1` [Compound 28, ((2R,3S,4R,5S)-5-(4-aminopyrrolo[2,1-f][1,2,4]triazin-7-yl)-2-cyano-3,4-dihydroxytetrahydrofuran-2-yl)methyl ((R)-2-((4-cyano-3-isopropoxybenzyl)oxy)henicosyl) hydrogen phosphate] to `CCCCCCCCCCCCCCCCCCOC[C@H](COP(=O)(O)OC[C@@]1(C#N)O[C@@H](c2ccc3c(N)ncnn23)[C@H](O)[C@@H]1O)OCc1ccc(C#N)c(Cl)c1` [Compound 7, ((2R,3S,4R,5S)-5-(4-aminopyrrolo[2,1-f][1,2,4]triazin-7-yl)-2-cyano-3,4-dihydroxytetrahydrofuran-2-yl)methyl ((R)-2-((3-chloro-4-cyanobenzyl)oxy)-3-(octadecyloxy)propyl) hydrogen phosphate], the EC50 rises from 28 nM to 113 nM (4-fold). The first is the more potent here.

Compared with `CCCCCCCCCCCCCCCCCOC[C@H](COP(=O)(O)OC[C@@]1(C#N)O[C@@H](c2ccc3c(N)ncnn23)[C@H](O)[C@@H]1O)OCc1cc(F)cc(C#N)c1` [Compound 53, ((2R,3S,4R,5S)-5-(4-aminopyrrolo[2,1-f][1,2,4]triazin-7-yl)-2-cyano-3,4-dihydroxytetrahydrofuran-2-yl)methyl ((R)-2-((3-cyano-5-fluorobenzyl)oxy)-3-(heptadecyloxy)propyl) hydrogen phosphate], `CCCCCCCCCCCCCCCCCCOC[C@H](COP(=O)(O)OC[C@@]1(C#N)O[C@@H](c2ccc3c(N)ncnn23)[C@H](O)[C@@H]1O)OCc1cc(F)cc(C#N)c1` [Compound 1, ((2R,3S,4R,5S)-5-(4-aminopyrrolo[2,1-f][1,2,4]triazin-7-yl)-2-cyano-3,4-dihydroxytetrahydrofuran-2-yl)methyl ((R)-2-((3-cyano-5-fluorobenzyl)oxy)-3-(octadecyloxy)propyl) hydrogen phosphate] is 1.5-fold higher in EC50: 69 nM for the first, 104 nM for the second. The first is the more potent here.

Compared with `CCCCCCCCCCCCCCCCCCOC[C@H](COP(=O)(O)OC[C@@]1(C#N)O[C@@H](c2ccc3c(N)ncnn23)[C@H](O)[C@@H]1O)OCc1ccc(C#N)c(-n2cncn2)c1` [Compound 16, ((2R,3S,4R,5S)-5-(4-aminopyrrolo[2,1-f][1,2,4]triazin-7-yl)-2-cyano-3,4-dihydroxytetrahydrofuran-2-yl)methyl ((R)-2-((4-cyano-3-(1H-1,2,4-triazol-1-yl)benzyl)oxy)-3-(octadecyloxy)propyl) hydrogen phosphate], `CCCCCCCCCCCCCCCCCCOC[C@H](COP(=O)(O)OC[C@@]1(C#N)O[C@@H](c2ccc3c(N)ncnn23)[C@H](O)[C@@H]1O)OCc1ccc(C#N)nc1` [Compound 19, ((2R,3S,4R,5S)-5-(4-aminopyrrolo[2,1-f][1,2,4]triazin-7-yl)-2-cyano-3,4-dihydroxytetrahydrofuran-2-yl)methyl ((R)-2-((6-cyanopyridin-3-yl)methoxy)-3-(octadecyloxy)propyl) hydrogen phosphate] is higher in EC50: < 6 nM for the first, 98 nM for the second. The first is the more potent here.

Compared with `CCCCCCCCCCCCCCCCCCOCC(COc1cc(F)cc(C#N)c1)COP(=O)(O)OC[C@@]1(C#N)O[C@@H](c2ccc3c(N)ncnn23)[C@H](O)[C@@H]1O` (stereo partly drawn) [Compound 43, ((2R,3S,4R,5S)-5-(4-aminopyrrolo[2,1-f][1,2,4]triazin-7-yl)-2-cyano-3,4-dihydroxytetrahydrofuran-2-yl)methyl (3-(3-cyano-5-fluorophenoxy)-2-((octadecyloxy)methyl)propyl) hydrogen phosphate], `CCCCCCCCCCCCCCOC[C@H](COP(=O)(O)OC[C@@]1(C#N)O[C@@H](c2ccc3c(N)ncnn23)[C@H](O)[C@@H]1O)Oc1cc(C#N)ccn1` [Compound 69, ((2R,3S,4R)-5-(4-aminopyrrolo[2,1-f][1,2,4]triazin-7-yl)-2-cyano-3,4-dihydroxytetrahydrofuran-2-yl)methyl ((R)-2-((4-cyanopyridin-2-yl)oxy)-3-(tetradecyloxy)propyl) hydrogen phosphate] is 4.4-fold lower in EC50: 129 nM for the first, 29 nM for the second.
